Test system: PD patient
Experiment: EMG analysis during rest, postural and writing activity in the same subject before and after medication (monitoring of drug effectiveness)
Type: in vivo
Conditions: after meds
Text: Technology for detecting Parkinson's disease (PD) comprises of a group of indicators (endpoints) that are based on various Electromyography (EMG) properties of hand muscles during gesture writing as well as kinematics and pen traces. Gesture writing is the type of writing, when part of the time a pen is touching the tablet (writing activity) and part of the time a pen is not touching the tablet (postural activity). During postural period a hand is held against gravity. Postural EMG activity can be found programmatically by analyzing the writing activity, since it is known from the tablet recording when a pen was touching a tablet and not touching the tablet. In addition, EMG at rest is recorded, while both hands are lying on a table. The properties of resting EMG signals are also included in the analysis. Two differential channels of EMG are recorded from each hand. EMG recordings are synchronized with the input from the tablet PC.
In one example, 100 trials were administered. A beep sound denotes the end of one trial and beginning of the next trial. Writing activity was analyzed while a subject was writing a number “3” in cursive. The length of each trial was 5 sec. During “rest,” trials with a length of 5 sec each were generated. Postural trials were selected by a computer program. 100 trials for each type of activity were recorded. A large number of trials (around 100) is very important in the analysis, because muscle activity has high variability. A statistical ensemble is created in order for statistical analysis to be applied. A confidence interval was calculated to confirm the existence of peaks in Fast Fourier Transform (FFT).
Condition 1: Resting. The experimental session started with a recording where the participants were resting with both hands, forearms, and elbows on the table. During one continuous recording the experimenter triggered at least 25 trials of 5 seconds by touching the electronic pen on the tablet after each beep. In total 4 such files were recorded with 1-minute pauses in between, yielding 100 resting trials in total. During the pause the participants rested their hands on their knees.
Condition 2: Character-Writing and postural control of pen lift. After the resting session the participants were instructed to wait with the pen lifted while the entire forearm including elbow rested on the table. Upon hearing the beep participants were to touch the tablet with the pen and write character “3” as fast and convenient as possible and then lift the pen until the next beep. The next beep was automatically generated 4 seconds after the pen lift. As the participants were instructed to keep their forearms resting on the table the thumb muscles were optimally involved in producing character “3”. The non-writing arm rested on the table as in the resting condition. The writing segment was defined as the 5-second segment starting 2 seconds before the pen touched the writing surface till 3 seconds after that (See FIG. 3). We also defined a postural segment starting when the pen was lifted till the beep that was generated 4 seconds later. Thus each trial included a writing segment and a postural segment. The experimenter ensured that after the first trial at least 25 good trials were recorded. The experimenter ensured that at least 25 successful trials were recorded. This means that the subject had to write a complete character and only after that they lift up the pen and waited for a beep to start writing another character. All trials, including incidentally failed trials (except first and last one) were included in the analysis. After recording 25 acceptable trials, the participant was instructed to pause for 1 minute with both hands on the knees like in the resting condition. In total 4 files of 5 minutes were recorded yielding 100 trials.
Our Norconnect DH software (written in MATLAB, MathWorks, Natick, Mass., USA) processed the EMGs and handwriting kinematics to quantify 8 PD indicators (See Table 2). […]

[1] = EMG spectral peak, in 4 channels

In the case of `C#CCN[C@@H]1CCc2ccccc21` [Rosageline], the “Tremor, Postural” value [1] is reported as “No (in 4”, the “Tremor, Rest” value [1] is reported as “No (in 4” and the “Stiffness, spectral density maximum, Postural, ch3” value (ch3 left hand) is reported as “ch.3: 2 mV”. For the same molecule, the “Stiffness, spectral density maximum, Postural, ch4” value (ch4 left hand) was “ch4: 1.1 (mV)”, the “Weakness, mean intensity, Writing, ch1” value (criterion <0.005 mV^2, ch1) was “ch1: 0.003 mV^2” and the “Weakness, mean intensity, Writing, ch2” value (criterion <0.005 mV^2, ch2) was “ch2: 0.018 (mV^2)”. The “Stiffness, spectral density maximum, Rest, ch1” value (criterion >0.5 mV, ch1 right hand) was “ch1: 2 mV”, the “Stiffness, spectral density maximum, Rest, ch2” value (criterion >0.5 mV, ch2 right hand) was “ch2: 2.4 mV” and the “Stiffness, spectral density maximum, Rest, ch3” value (criterion >0.5 mV, ch3 left hand) was “ch3: 0.6 mV”. The “Stiffness, spectral density maximum, Rest, ch4” value (criterion >0.5 mV, ch4 left hand) was “ch4: 0.6 (mV)”, the “Stiffness, spectral density maximum, Postural, ch1” value (criterion >1 mV, ch1 right hand) was “ch1: 2 mV” and the “Stiffness, spectral density maximum, Postural, ch2” value (criterion >1 mV, ch2 right hand) was “ch2: 7.5 mV”.
